# Source: patent publication US10688093B2, “Methods, compositions, and uses of novel Fyn kinase inhibitors” (priority 2015, dated 2020)
# Biological target: full-length recombinant human FYN A (Homo sapiens (Human), UniProt P06241)
# Experiment: ADP-Glo Kinase Assay of FYN kinase inhibition
# Format: biochemical
# Conditions: primary screen, initial compounds
# Source text: The chemical library was comprised of the SoftFocus ATP-competitive hinge binding compounds described by Harris, C. J., Hill, R. D., Sheppard, D. W., et al., The Design and Application of Target-Focused Compound Libraries. Combinatorial Chemistry and High Throughput Screening 14:521-31 (2011). The specific pharmacore chemistries included SFK52 comprising 6-[R2]-3-[R1]imidazo[1,2-b] pyridazine compounds, SFK33 comprising N-(3-[R2] imidazo [1,2-b] pyridazin-6-yl) [R1] amine compounds, SFK49 comprising N-(5-[R2] imidazo [2,1-b][1,3,4] thiadiazol-2-yl)[R1]-amine compounds, SFK 40 comprising 5-[R2]-3-[R1] pyridin-2-amine compounds, SFK43 comprising 6-[R2]-3-[R1]imidazo[1,2-a]pyrazine compounds, and SFK63. The chemical structures of the initial 600 potential kinase inhibitors are presented in Table 3, with those chosen for additional analysis presented in Table 4. Comparison of the compounds presented in Table 1 and those of Tables 2, 3 and 4, illustrate the novelty of the chemical structures claimed herein.
# FYN kinase (10 micrograms) was from the FYN A Kinase Enzyme System (V3571, Promega UK Ltd.), a full-length recombinant human FYN A containing an N-terminal GST tag of about 85 kDa, expressed by bacullovirus in […] insect cells, supplied at a concentration of 0.1 microgram/microliter in 5×reaction buffer. The FYN substrate, a 12 amino acid peptide of the sequence […], containing a single tyrosine phosphorylation site, was custom synthesized (Peptide Synthetics, Peptide Protein Research, Fareham, UK) and supplied as a 4 mg/ml aqueous solution. All other reagents were obtained from Sigma (Sigma-Aldrich, Gillingham, Dorset, UK), with the exception of UltraPure ATP (V9102, Promega UK Ltd.) and the ATP-competitive broad spectrum protein kinase inhibitor staurosporine (569397, Merck Millipore, Watford, Hertfordshire, UK), or as otherwise indicated.
# The assay procedure determines the IC50 of each potential FYN kinase inhibitor by measuring the enzyme catalyzed ATP-dependent phosphorylation of the FYN substrate peptide. The ADP-Glo™ Kinase Assay is specifically designed to quantify kinase activity by measuring the ADP produced in the reaction The reaction buffer comprises 40 mM Tris.HCl (pH 7.5), 20 mM MgCl2, 0.1 mg/ml BSA and 5 microM DTT. Individual compounds within the chemical library were dissolved in DMSO at known concentrations. Briefly, 2.5 microliters of reaction buffer containing 3 picograms of FYN kinase and serial dilutions of each potential FYN kinase inhibitor (9 3-fold dilutions of a 10 micromolar top sample) are placed into each well of a 384 well microtiter plate and incubated at room temperature for 30 minutes. An additional 2.5 microliters of reaction buffer containing 100 picograms of the FYN substrate and 12.5 picomoles of ATP are then added to each well and the reaction carried out for 90 minutes at room temperature. The reactions are terminated by addition of 5 microliters of the ADP-Glo™ Reagent component of the ADP-Glo™ Kinase Assay kit to each well. The ADP-Glo™ Reagent comprises an ATP-dependent adenylate cyclase, an inorganic pyrophosphatase and an excess of staurosporine. The adenylate cyclase converts the remaining ATP to cAMP and pyrophospahte, the pyrophosphatase converts the pyrophosphate to phosphate and the staurosporine inhibits the activity of the FYN kinase, the net effect is to remove all residual ATP while preserving the ADP produced by FYN kinase. The terminated reactions are incubated for 40 minutes at room temperature, prior to addition of the Kinase Detection Reagent component of the ADP-Glo™ Kinase Assay kit to each well. The Kinase Detection Reagent comprises pyruvate kinase, phosphoenol pyruvate (PEP), luciferin and luciferase. The pyruvate kinase converts PEP to pyruvate and in the process generates ATP from the residual ADP present in the terminated reaction. […]
# full-length recombinant human FYN A, sequence (P06241 whole entry): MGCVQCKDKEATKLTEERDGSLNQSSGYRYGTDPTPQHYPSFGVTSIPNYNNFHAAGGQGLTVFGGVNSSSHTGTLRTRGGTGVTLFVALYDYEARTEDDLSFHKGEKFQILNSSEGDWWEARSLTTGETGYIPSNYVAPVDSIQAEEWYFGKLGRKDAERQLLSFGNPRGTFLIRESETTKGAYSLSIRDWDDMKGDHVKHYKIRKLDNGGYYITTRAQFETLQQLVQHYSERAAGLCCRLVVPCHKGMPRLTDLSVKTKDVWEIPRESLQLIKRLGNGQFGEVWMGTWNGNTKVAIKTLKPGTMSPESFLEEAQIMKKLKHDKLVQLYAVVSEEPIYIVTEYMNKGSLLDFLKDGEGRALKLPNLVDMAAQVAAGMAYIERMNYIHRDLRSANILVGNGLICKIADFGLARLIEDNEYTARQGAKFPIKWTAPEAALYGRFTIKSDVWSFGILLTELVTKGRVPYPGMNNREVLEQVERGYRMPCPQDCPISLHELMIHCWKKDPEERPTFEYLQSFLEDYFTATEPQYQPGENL
row,IC50 [nM],SMILES
1,801,"CC(=O)Nc1cccc(-c2cnc3ccc(N[C@H](CO)C(C)C)nn23)c1 [229_0254_0081, N-[3-[6-[[(1S)-1-(hydroxymethyl)-2-methyl-propyl]amino]imidazo[1,2-b]pyridazin-3-yl]phenyl] acetamide]"
2,3180,"CC(C)[C@@H](CO)Nc1ccc2ncc(-c3ccc(C#N)cc3)n2n1 [229_0254_0086, 4-[6-[[(1S)-1-(hydroxymethyl)-2-methyl-propyl]amino]imidazo[1,2-b]pyridazin-3-yl]benzonitrile]"
3,3050,"CC(C)[C@@H](CO)Nc1ccc2ncc(-c3ccc(N)cc3)n2n1 [229_0254_0333, (2S)-2-[[3-(4-aminophenyl)imidazo[1,2-b]pyridazin-6-yl]amino]-3-methyl-butan-1-ol]"
4,797,"c1ccc(CNc2ccc3ncc(-c4ccc5c(c4)OCO5)n3n2)nc1 [229_4007_0068, 3-(1,3-benzodioxol-5-yl)-N-(2-pyridylmethyl) imidazo[1,2-b]pyridazin-6-amine]"
5,3300,"COc1cccc(-c2cnc3ccc(NCC4CC4)nn23)c1 [229_4051_4140, N-(cyclopropyl-methyl)-3-(3-methoxyphenyl) imidazo[1,2-b]pyridazin-6-amine]"
6,5310,"COc1cc(-c2cnc3ccc(NCc4ccc(C)cc4C)nn23)ccc1O [229_4319_0314, 4-[6-[(2,4-dimethylphenyl)methylamino]imidazo[1,2-b]pyridazin-3-yl]-2-methoxy-phenol]"
7,7340,"COc1cccc(-c2ccc3c(-c4ccc(C(=O)NCCCN(C)C)cc4)n[nH]c3n2)c1F [267_0180_7936, N-[3-(dimethylamino)propyl]-4-[6-(2-fluoro-3-methoxy-phenyl)-1H-pyrazolo[3,4-b]pyridin-3-yl]benzamide]"
8,3390,"COc1ccc(Nc2ccn3ncc(-c4cccc(O)c4)c3n2)cn1 [294_0042_0284, 3-[5-[(6-methoxy-3-pyridyl)amino]pyrazolo[1,5-a]pyrimidin-3-yl]phenol]"
9,5310,"COc1cccc(-c2cnn3ccc(Nc4ccc(OC)nc4)nc23)c1 [294_0042_4140, 3-(3-methoxyphenyl)-N-(6-methoxy-3-pyridyl)pyrazolo [1,5-a]pyrimidin-5-amine]"
10,1640,"COc1ccc(Nc2ccn3ncc(-c4cccc(C(C)=O)c4)c3n2)cn1 [294_0042_4145, 1-[3-[5-[(6-methoxy-3-pyridyl)amino]pyrazolo[1,5-a]pyrimidin-3-yl]phenyl] ethanone]"
11,2250,"COc1cncc(-c2cnn3ccc(Nc4ccc(N5CCOCC5)cc4)nc23)c1 [294_0088_0196, 3-(5-methoxy-3-pyridyl)-N-(4-morpholino-phenyl)pyrazolo [1,5-a]pyrimidin-5-amine]"
12,3170,"Cc1ccc(Nc2ccn3ncc(-c4cccc(O)c4)c3n2)cc1NS(C)(=O)=O [294_0123_0284, N-[5-[[3-(3-hydroxyphenyl)pyrazolo[1,5-a]pyrimidin-5-yl]amino]-2-methyl-phenyl]methane-sulfonamide]"
13,2510,"Nc1cccc(-c2cnn3ccc(NCc4cccnc4)nc23)c1 [294_4003_0005, 3-(3-amino-phenyl)-N-(3-pyridylmethyl) pyrazolo[1,5-a]pyrimidin-5-amine]"
14,1640,"COc1ccc(-c2cnn3ccc(NCc4cccnc4)nc23)cc1OC [294_4003_0079, 3-(3,4-dimethoxy-phenyl)-N-(3-pyridylmethyl) pyrazolo[1,5-a]pyrimidin-5-amine]"
15,1220,"COc1ccccc1-c1cnn2ccc(NCc3cccnc3)nc12 [294_4003_0083, 3-(2-methoxyphenyl)-N-(3-pyridylmethyl) pyrazolo[1,5-a]pyrimidin-5-amine]"
16,2350,"COc1cc(-c2cnn3ccc(NCc4cccnc4)nc23)cc(OC)c1OC [294_4003_0087, N-(3-pyridylmethyl)-3-(3,4,5-trimethoxy-phenyl) pyrazolo[1,5-a]pyrimidin-5-amine]"
17,4180,"COc1ccc(-c2cnn3ccc(Nc4ccc(C(C)C)cc4)nc23)cc1 [294_6937_0280, N-(4-isopropylphenyl)-3-(4-methoxyphenyl) pyrazolo[1,5-a]pyrimidin-5-amine]"

row,IC50 [nM],SMILES
1,2970,"COc1cc(-c2cnc(N)c(-c3cccc(N)c3)c2)cc(OC)c1OC [382_0005_0087, 3-(3-aminophenyl)-5-(3,4,5-trimethoxy-phenyl)pyridin-2-amine]"
2,1700,"Cc1cc(-c2cnc(N)c(-c3ccncc3)c2)cc(C)c1O [382_0069_0315, 4-[6-amino-5-(4-pyridyl)-3-pyridyl]-2,6-dimethyl-phenol]"
3,530,"COc1cc(-c2cc(-c3ccc(OCCCN(C)C)nc3)cnc2N)cc(OC)c1OC [382_0087_0002, 5-[6-[3-(dimethylamino)propoxy]-3-pyridyl]-3-(3,4,5-trimethoxy-phenyl)pyridin-2-amine]"
4,893,"COc1cc(-c2cc(-c3ccccc3)cnc2N)cc(OC)c1OC [382_0087_0061, 5-phenyl-3-(3,4,5-trimethoxy-phenyl)pyridin-2-amine]"
5,9010,"COc1cc(-c2cc(-c3ccccc3Oc3ccccc3)cnc2N)cc(OC)c1OC [382_0087_0063, 5-(2-phenoxyphenyl)-3-(3,4,5-trimethoxy-phenyl)pyridin-2-amine]"
6,2690,"COc1cc(-c2cc(-c3cc4ccccc4s3)cnc2N)cc(OC)c1OC [382_0087_0076, 5-(benzothiophen-2-yl)-3-(3,4,5-trimethoxyphenyl) pyridin-2-amine]"
7,595,"COc1cc(-c2cc(-c3cccc(N(C)C)c3)cnc2N)cc(OC)c1OC [382_0087_0135, 5-[3-(dimethyl-amino)phenyl]-3-(3,4,5-trimethoxyphenyl) pyridin-2-amine]"
8,485,"COc1cc(-c2cc(-c3cccc(C(=O)NCCO)c3)cnc2N)cc(OC)c1OC [382_0087_0192, 3-[6-amino-5-(3,4,5-trimethoxy-phenyl)-3-pyridyl]-N-(2-hydroxyethyl) benzamide]"
9,322,"COc1cc(-c2cc(-c3ccc(N4CCN(C)CC4)cc3)cnc2N)cc(OC)c1OC [382_0087_0218, 5-[4-(4-methylpiperazin-1-yl)phenyl]-3-(3,4,5-trimethoxyphenyl)pyridin-2-amine]"
10,2980,"COc1ccc(-c2cnc(N)c(-c3cc(OC)c(OC)c(OC)c3)c2)cc1 [382_0087_0280, 5-(4-methoxyphenyl)-3-(3,4,5-trimethoxy-phenyl)pyridin-2-amine]"
11,723,"COc1cc(-c2cc(-c3cccc(O)c3)cnc2N)cc(OC)c1OC [382_0087_0284, 3-[6-amino-5-(3,4,5-trimethoxy-phenyl)-3-pyridyl]phenol]"
12,1060,"COc1ccc(-c2cnc(N)c(-c3cc(OC)c(OC)c(OC)c3)c2)cn1 [382_0087_0311, 5-(6-methoxy-3-pyridyl)-3-(3,4,5-trimethoxyphenyl) pyridin-2-amine]"
13,1520,"COc1cc(-c2cc(-c3cccc(F)c3)cnc2N)cc(OC)c1OC [382_0087_0313, 5-(3-fluorophenyl)-3-(3,4,5-trimethoxy-phenyl)pyridin-2-amine]"
14,712,"COc1cc(-c2cc(-c3cc(C)c(O)c(C)c3)cnc2N)cc(OC)c1OC [382_0087_0315, 4-[6-amino-5-(3,4,5-trimethoxyphenyl)-3-pyridyl]-2,6-dimethyl-phenol]"
15,971,"COc1cc(-c2cc(-c3ccc(N)cc3)cnc2N)cc(OC)c1OC [382_0087_0333, 5-(4-aminophenyl)-3-(3,4,5-trimethoxy-phenyl)pyridin-2-amine]"
16,2860,"COc1cc(-c2cc(-c3ccc(F)cc3)cnc2N)cc(OC)c1OC [382_0087_0339, 5-(4-fluoro-phenyl)-3-(3,4,5-trimethoxy-phenyl)pyridin-2-amine]"
